Reference: patent US11033559B2, “Leukocyte infiltration promoting agent and antitumor immunostimulatory agent” (OSAKA UNIVERSITY, priority 2015, dated 2021)

Tests used:
Format in all cases: in vivo
[1] = system: luminal surface of tumor blood vessels in LLC tumor-bearing mice; assay: Structural changes in lumina of tumor blood vessels (scanning electron microscopy); settings: 3 mg/kg intraperitoneally, 24 hours after administration, scanning electron microscope
Protocol: LLC cells were subcutaneously inoculated into C57BL/6 NCrSlc mice aged 8 weeks (females, SLC, Inc.) in the same manner as in Reference Example 1. An LPA solution for administration was prepared in the same manner as in Reference Example 1. LLC-bearing mice on day 9 post-inoculation (animals with a tumor volume of 60 to 80 mm^3) were subjected to the experiment. The mice were divided into two groups: a control group and an LPA group (n=3 per group). After grouping, LPA (3 mg/kg/100 μL) or PBS (100 μL) was intraperitoneally administered to the mice. At 24 hours after LPA or PBS administration, the mice were fixed by perfusion with a fixative under anesthesia with pentobarbital (Kyoritsu Seiyaku Corporation). The fixative used was 0.1 M phosphate buffer (pH 7.4) containing 2% formaldehyde and 2.5% glutaraldehyde. After the fixation by perfusion, the tumors were harvested, immersed in the same fixative as used for perfusion, and shaken at 4° C. overnight. The tumors were further immersed in 0.1 M phosphate buffer (pH 7.4) containing 1% osmium tetroxide and 0.5% potassium ferrocyanide for fixation. The tumors were dehydrated in an ascending series of ethanol, then the alcohol was replaced with t-butyl alcohol, and the tumors were freeze-dried.

[2] = system: tumor blood vessels in Lewis lung cancer (LLC) tumor-bearing mice; assay: Structural changes in tumor blood vessels (anti-CD31 immunostaining) after administration of LPA or LPA derivative; settings: 3 mg/kg intraperitoneally once daily for five days, tumors harvested at 6 days, anti-CD31 staining
Protocol: LPA or an LPA derivative was administered to tumor-bearing mice generated by subcutaneous inoculation of a mouse cancer cell line, and post-administration structural changes in tumor blood vessels were examined.
Lewis lung cancer cells (hereinafter called LLC cells) were used as the mouse cancer cell line. LLC cells (1×10^6 cells in 100 μL PBS per animal) were subcutaneously injected into C57BL/6 NCrSlc mice aged 8 weeks (females, SLC, Inc.).
The LPA used was 18:1 LPA (Avanti Polar Lipids, Inc.). The LPA derivative used was VPC31144S (N-{(1S)-2-hydroxy-1-[(phosphonooxy)methyl]ethyl} (9Z) octade c-9-enamide). A 10 mM LPA stock solution and a 10 mM VPC31144S stock solution were separately prepared using 50% ethanol and stored at −30° C. Before use, each of the frozen stock solutions was thawed and homogenized with an ultrasonic cleaner (SND Co., Ltd.) for 1 minute. The solution was diluted in PBS to an appropriate concentration for administration at a dose of 3 mg/kg in 100 μL PBS.
On day 9 post-inoculation, LLC-bearing mice that had developed a tumor with a volume of 60 to 80 mm^3 (volume=length×width×height×0.5) were selected and subjected to the experiment. The mice were assigned to three groups: a control group, an LPA group and a VPC31144S group. Each group consisted of three mice. […]

[3] = system: B16-BL6 mouse melanoma cell line; assay: Tumor growth inhibition, subcutaneous tumor formed from melanoma cells; settings: B16-BL6-bearing mice; LPA 3 mg/kg i.p. once daily for seven days; 5-FU 100 mg/kg i.p. once weekly, 2 times
Protocol: LLC cells (1×10^6 cells in 100 μL PBS per animal) were subcutaneously injected into C57BL/6 NCrSlc mice aged 8 weeks (females) in the same manner as in Reference Example 1. An LPA solution for administration was prepared in the same manner as in Reference Example 1. 5-FU (Kyowa Hakko Kirin Co., Ltd.) was used as an anticancer drug. 5-FU was prepared as a solution in physiological saline (Otsuka Pharmaceutical Co., Ltd.). On day 7 post-inoculation, LLC-bearing mice that had developed a tumor with a volume of 30 to 50 mm^3 were selected and subjected to the experiment. The mice were assigned to three groups: a control group, a 5-FU group and an LPA group (n=3 per group). After grouping, LPA (3 mg/kg/100 μL), 5-FU (100 mg/kg/100 μL) or PBS (100 μL) was intraperitoneally administered to the mice. The administration of LPA or PBS was performed once daily for consecutive seven days. The administration of 5-FU was performed once weekly, 2 times in total (day 7 and day 14 post-inoculation). Tumor size was measured over time after the start of the administration. Tumor volume was calculated by the following formula: length×width×height×0.5.
The B16-BL6 mouse melanoma cell line was used. B16-BL6 cells (1×10^6 cells in […] PBS per animal) were subcutaneously injected into C57BL/6 NCrSlc mice aged 8 weeks (females). […]

Substance: lysophosphatidic acid [LPA]
- luminal surface of tumor blood vessels [1]: very smooth luminal surface
- network structure of tumor blood vessels [2]: continuous network structure of blood vessels
- inhibitory effect on growth of the tumor formed from melanoma cells [3]: comparable to that of 5-FU
